Laboratory results from patent publication US20100261710A1, “HDAC Inhibitors” (ARQULE, INC., priority 2007, published 2010).
Like-named read-outs stand apart in the source and are kept apart here.

How the values were obtained:
MJ cells = experiment: MTS cell viability assay, MJ; type: cell-based; details: 72 hr, read-out: MJ, IG50, MTS
Protocol: (§1) The MTS cell viability assay was used to determine the potency of proliferation inhibitor with. MTS measures mitochondrial dehydrogenase activity and serves as surrogate readout for the number of viable cells.
(§2) For MTS assay, cells were plated in 96-well plates at 2000 cells per well and incubated in the presence of compounds for 72 hr. MTS was added to each well as instructed by manufacture (Promega) and plates were incubated for 4 h at 37° C. The absorbance of each well was measured at 490 nm using a microplate reader.

HDAC3 = biological target: T1, HDAC3 (Homo sapiens, UniProt O15379); experiment: HDAC isoform assay, HDAC3; type: biochemical
T1 construct: purchased BioMol
T1 sequence (O15379 whole entry, canonical isoform): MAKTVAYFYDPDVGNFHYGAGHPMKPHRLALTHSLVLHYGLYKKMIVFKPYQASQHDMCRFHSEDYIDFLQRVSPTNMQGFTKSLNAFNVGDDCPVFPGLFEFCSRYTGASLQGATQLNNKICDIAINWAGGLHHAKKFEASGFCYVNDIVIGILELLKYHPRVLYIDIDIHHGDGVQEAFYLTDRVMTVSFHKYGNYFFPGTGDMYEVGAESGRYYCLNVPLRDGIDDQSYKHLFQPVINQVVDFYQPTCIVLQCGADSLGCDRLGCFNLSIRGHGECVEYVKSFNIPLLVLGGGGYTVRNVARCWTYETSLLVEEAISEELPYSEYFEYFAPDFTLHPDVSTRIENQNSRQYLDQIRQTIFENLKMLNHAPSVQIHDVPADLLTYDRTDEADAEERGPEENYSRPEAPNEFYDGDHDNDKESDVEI
T1 sequence (O75376 395-489 partner limits assumed): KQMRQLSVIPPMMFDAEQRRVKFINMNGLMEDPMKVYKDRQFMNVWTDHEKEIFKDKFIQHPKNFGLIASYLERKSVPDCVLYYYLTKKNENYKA
Protocol: The assay measures the ability of a small molecule to inhibit deacetylation of the substrate. Activator reagent recognizes the substrate only if the lysine has been deacetylated.
This homogeneous assay in performed in the same well without washing steps. The HDAC source, nuclear HeLa extract, is incubated with substrate in the presence of an inhibitor compound. At the end of the reaction time, activator solution, containing Trypsin and TSA, is added to stop the deacetylation reaction, and cleave the amino-coumarin from the deacetylated substrate. The plate is then read on either a Perkin Elmer Victor or Envision system using Umbilliferone filter set. […] The signal is directly proportional to the activity of HDACs and compound inhibition of HDAC is monitored by a decrease in signal.

HCT-116 cells = experiment: MTS cell viability assay, HCT-116; type: cell-based; details: Homo sapiens
Protocol: as §1, §2

HH cells = experiment: MTS cell viability assay, HH; type: cell-based; details: Homo sapiens, 72 hr, read-out: HH, IG50, MTS
Protocol: The MTS cell viability assay was used to determine the potency of proliferation inhibitor with. MTS measures mitochondrial dehydrogenase activity and serves as surrogate readout for the number of viable cells. The protocol described below is based upon the “CellTiter 96 Aqueous Non-Radioactive Cell Proliferation Assay” sold by Promega (Technical Bulletin No. 169).
as §2

Hut78 cells = experiment: MTS cell viability assay, Hut78; type: cell-based; details: Homo sapiens; Hut78, 72 hr; read-out: Hut78, IG50, MTS
Protocol: as §1, §2

HDAC5 = HDAC5 (Homo sapiens, UniProt Q9UQL6); experiment: HDAC isoform assay, HDAC5
HDAC5, sequence (Q9UQL6 whole entry, canonical isoform): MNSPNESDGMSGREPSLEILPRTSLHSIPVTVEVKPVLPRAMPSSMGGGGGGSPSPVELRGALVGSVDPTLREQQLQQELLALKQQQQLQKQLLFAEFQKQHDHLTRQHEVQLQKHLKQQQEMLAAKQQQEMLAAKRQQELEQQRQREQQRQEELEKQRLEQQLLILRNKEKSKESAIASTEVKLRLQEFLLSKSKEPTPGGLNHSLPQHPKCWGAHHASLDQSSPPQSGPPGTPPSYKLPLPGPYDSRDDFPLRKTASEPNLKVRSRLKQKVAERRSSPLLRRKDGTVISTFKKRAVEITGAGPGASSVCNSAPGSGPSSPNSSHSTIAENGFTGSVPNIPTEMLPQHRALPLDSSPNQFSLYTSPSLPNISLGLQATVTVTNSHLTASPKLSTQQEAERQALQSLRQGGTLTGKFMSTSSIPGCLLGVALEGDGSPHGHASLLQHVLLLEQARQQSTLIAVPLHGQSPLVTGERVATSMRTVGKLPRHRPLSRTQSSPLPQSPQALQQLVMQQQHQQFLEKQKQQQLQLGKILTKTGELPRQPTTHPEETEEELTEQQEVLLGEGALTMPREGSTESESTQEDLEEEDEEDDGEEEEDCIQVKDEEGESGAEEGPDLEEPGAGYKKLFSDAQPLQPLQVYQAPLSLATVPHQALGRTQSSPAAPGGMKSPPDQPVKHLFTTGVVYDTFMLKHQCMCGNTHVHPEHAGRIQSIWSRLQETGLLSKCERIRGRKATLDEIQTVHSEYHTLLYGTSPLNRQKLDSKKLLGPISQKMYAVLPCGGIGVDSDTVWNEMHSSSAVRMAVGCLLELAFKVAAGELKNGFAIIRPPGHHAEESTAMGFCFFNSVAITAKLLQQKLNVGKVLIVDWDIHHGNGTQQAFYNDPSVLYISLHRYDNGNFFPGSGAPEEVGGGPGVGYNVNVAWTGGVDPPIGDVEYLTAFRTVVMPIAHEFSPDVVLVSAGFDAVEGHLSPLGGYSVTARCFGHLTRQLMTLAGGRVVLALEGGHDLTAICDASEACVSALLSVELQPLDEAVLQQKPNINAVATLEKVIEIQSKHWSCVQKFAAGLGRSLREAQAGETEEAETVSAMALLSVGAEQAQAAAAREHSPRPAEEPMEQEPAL

[1] = tested on: HDACs (nuclear HeLa extract); experiment: pan-HDAC fluorescent biochemical assay with nuclear HeLa extract; details: HDAC peptide substrate, 60 min at 37° C.
Protocol: Substrate was synthesized in house. Stocks were prepared in DMSO (10 mM).
Compound working solution: Compounds dissolved in assay buffer at 4× Screening concentration. Activator solution: Trypsin (10 mg/mL) diluted 1:1600 in Assay Buffer containing 4 μM TSA.
Total reaction Volume: 40 μL
Reaction was allowed to run for 60 minutes at 37° C.
2. Combine in a white ½ area well plate: 10 μl of 4× compound (or buffer), 15 μl of substrate and 15 μl of HeLa extract. Mix well
3. Incubate at 37° C. for 60 min.
4. Prepare Activator solution. Dilute Trypsin 1:1600 in Assay Buffer+4μM TSA. 20 μl is needed per assay point.
5. Add 20 μl of prepared activator solution and mix thoroughly.
The hydroxamic-acid based compounds of the present invention were tested in the biochemical assay for their pan-HDAC inhibitory activity.

HDAC8 = biological target: T2, HDAC8 (Homo sapiens, UniProt Q9BY41); experiment: HDAC isoform assay, HDAC8
T2 sequence (Q9BY41 1-377): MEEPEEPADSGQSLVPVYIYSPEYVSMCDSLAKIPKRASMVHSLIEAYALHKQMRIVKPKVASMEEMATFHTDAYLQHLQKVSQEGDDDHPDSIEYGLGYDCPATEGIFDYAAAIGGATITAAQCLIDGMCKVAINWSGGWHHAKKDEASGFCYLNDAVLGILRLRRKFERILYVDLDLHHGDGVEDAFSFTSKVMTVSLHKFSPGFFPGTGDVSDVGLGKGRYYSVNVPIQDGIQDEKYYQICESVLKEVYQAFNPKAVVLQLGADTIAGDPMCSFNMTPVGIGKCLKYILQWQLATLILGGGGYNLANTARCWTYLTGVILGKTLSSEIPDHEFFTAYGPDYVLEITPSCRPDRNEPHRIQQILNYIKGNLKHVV

HDAC6 = biological target: T3, HDAC6 (Homo sapiens, UniProt Q9UBN7); experiment: HDAC isoform assay, HDAC6
T3 sequence (Q9UBN7 1-1215): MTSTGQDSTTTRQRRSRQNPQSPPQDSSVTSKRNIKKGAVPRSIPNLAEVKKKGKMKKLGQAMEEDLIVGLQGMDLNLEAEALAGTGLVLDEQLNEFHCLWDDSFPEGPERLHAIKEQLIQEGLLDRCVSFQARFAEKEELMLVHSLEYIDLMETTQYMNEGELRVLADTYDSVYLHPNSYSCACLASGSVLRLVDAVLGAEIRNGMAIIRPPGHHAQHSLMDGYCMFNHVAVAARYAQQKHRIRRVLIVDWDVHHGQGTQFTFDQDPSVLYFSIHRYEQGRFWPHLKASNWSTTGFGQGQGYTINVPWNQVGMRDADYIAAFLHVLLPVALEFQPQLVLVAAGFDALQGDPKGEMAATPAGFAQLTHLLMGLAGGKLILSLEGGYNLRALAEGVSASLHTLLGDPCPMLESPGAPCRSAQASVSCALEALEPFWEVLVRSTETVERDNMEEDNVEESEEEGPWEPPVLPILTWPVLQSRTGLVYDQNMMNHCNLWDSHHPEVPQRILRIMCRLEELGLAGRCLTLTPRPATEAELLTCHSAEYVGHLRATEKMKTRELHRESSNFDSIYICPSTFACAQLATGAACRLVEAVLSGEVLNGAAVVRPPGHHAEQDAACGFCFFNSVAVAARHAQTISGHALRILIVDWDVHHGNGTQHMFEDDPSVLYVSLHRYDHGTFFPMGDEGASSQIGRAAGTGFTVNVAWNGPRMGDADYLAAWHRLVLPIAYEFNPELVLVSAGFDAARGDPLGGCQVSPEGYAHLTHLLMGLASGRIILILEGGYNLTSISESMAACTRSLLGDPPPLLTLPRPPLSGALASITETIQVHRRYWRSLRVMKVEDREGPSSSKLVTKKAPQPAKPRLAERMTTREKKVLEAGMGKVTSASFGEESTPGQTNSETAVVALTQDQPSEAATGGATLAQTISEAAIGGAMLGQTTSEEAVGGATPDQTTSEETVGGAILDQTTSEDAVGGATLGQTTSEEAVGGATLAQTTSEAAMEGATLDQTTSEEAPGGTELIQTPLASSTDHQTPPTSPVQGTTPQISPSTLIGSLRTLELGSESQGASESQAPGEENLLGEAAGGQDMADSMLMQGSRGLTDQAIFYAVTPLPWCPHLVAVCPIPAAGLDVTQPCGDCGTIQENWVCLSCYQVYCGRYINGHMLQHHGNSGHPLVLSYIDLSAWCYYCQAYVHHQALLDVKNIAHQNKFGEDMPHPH

[2] = HCT-116, 72 h, read-out: HCT-116, IG50, MTS (uM)
[3] = substrate KI-177, read-out: HDAC3, IC50, ELISA (KI-177)
[4] = HCT-116, 72 hr, read-out: HCT-116, IG50, MTS

Row | SMILES | IC50 (MJ cells) [nM] | IC50 (HDAC3) [nM] | IC50 (HCT-116 cells; [2]) [µM] | IC50 (HH cells) [nM] | IC50 (Hut78 cells) [nM] | IC50 (HDAC5) [nM] | IC50 [1] [nM] | IC50 (HDAC8) [nM] | IC50 (HDAC6) [nM] | melting point [°C] | IC50 (HDAC3; [3]) [nM] | IC50 (HCT-116 cells; [4]) [µM]
1 | O=C(CCCCCNC(=O)c1cn2c3c(cccc13)CCC2)NO [compound 2, N-[6-(hydroxyamino)-6-oxohexyl]-5,6-dihydro-4H-pyrrolo[3,2,1-ij]quinoline-1-carboxamide] | 5000 | 13.6 | 0.63 | 1720 | 2920 | 91.1 | 57.4 | 1090 | 67.2 |  |  | 
2 | O=C(CCCCCCNC(=O)c1cn2c3c(cccc13)CCC2)NO [compound 3, N-[7-(hydroxyamino)-7-oxoheptyl]-5,6-dihydro-4H-pyrrolo[3,2,1-ij]quinoline-1-carboxamide] | 120 | 45.7 | 0.215 | 111 | 240 | 95 | 69.8 | 408 | 158 | 205 to 206 |  | 
3 | O=C(CCCCCNC(=O)C(=O)c1cn2c3c(cccc13)CCC2)NO [compound 8, 6-{[5,6-dihydro-4H-pyrrolo[3,2,1-ij]quinolin-1-yl(oxo)acetyl]amino}-N-hydroxyhexanamide] | 7680 | 20.4 | 0.737 | 2620 |  | 163 | 115 | 9240 | 77.6 | 150 to 155 |  | 
4 | O=C(CCCNC(=O)C(=O)c1cn2c3c(cccc13)CCC2)NO [compound 9, 4-{[5,6-dihydro-4H-pyrrolo[3,2,1-ij]quinolin-1-yl(oxo)acetyl]amino}-N-hydroxybutanamide] | 4110 | 630 | 5.02 | 365 | 903 |  | 602 | 10000 | 692 | 95 to 97 |  | 
5 | O=C(CCCCCCNC(=O)Nc1cn2c3c(cccc13)CCC2)NO [compound 11, 7-[(5,6-dihydro-4H-pyrrolo[3,2,1-ij]quinolin-1-ylcarbamoyl)amino]-N-hydroxyheptanamide] | 470 |  |  | 94 | 181 | 353 | 27.9 | 492 | 66.4 | 185 to 187 | 23 | 0.492
6 | O=C(CCCCCCNC(=O)C(=O)c1cn2c3c(cccc13)CCC2)NO [compound 12, 7-{[5,6-dihydro-4H-pyrrolo[3,2,1-ij]quinolin-1-yl(oxo)acetyl]amino}-N-hydroxyheptanamide] | 130 |  |  | 45 | 174 | 260 | 126 | 6420 | 134 | 158 to 159 | 87.6 | 0.701
7 | O=C(CCCCCNC(=O)Nc1cn2c3c(cccc13)CCC2)NO [compound 13, 6-[(5,6-dihydro-4H-pyrrolo[3,2,1-ij]quinolin-1-ylcarbamoyl)amino]-N-hydroxyhexanamide] |  |  |  | 1020 | 1270 | 201 | 32.2 | 918 | 63.2 | 161 to 163 | 20.5 | 0.636
